Assay [1] has as its system Plasmodium falciparum. Kind of assay: Resistance index, ratio of IC50 for chloroquine-resistant Plasmodium falciparum Dd2 to IC50 for chloroquine-sensitive Plasmodium falciparum D10. Type of assay: functional.
Assay [2] concerns HeLa. Briefly: Cytotoxicity against human HeLa cells after 7 days by MTT assay. Type of assay: functional, cell-based. To be noted: 168 h.
Assay [3] in a line: Cytotoxicity against phytohaemagglutinin-stimulated human lymphocytes after 3 days by MTT assay. The conditions noted are these: Lymphocyte, 72 h. Type of assay: cell-based.
Assay [4] in a line: Cytotoxicity against human resting lymphocytes after 3 days by MTT assay. Type of assay: cell-based. The conditions noted are these: Lymphocyte, 72 h.
The test system of assay [5] is HeLa. Briefly: Tumor specificity, ratio of IC50 for human resting and phytohaemagglutinin-stimulated lymphocytes to IC50 for human HeLa cells.
For assay [6], the system named is Plasmodium falciparum. Kind of assay: Antiplasmodial activity against chloroquine-resistant Plasmodium falciparum Dd2. Type of assay: functional, organism-based.
Assay [7] deals with Plasmodium falciparum. Kind of assay: Antiplasmodial activity against chloroquine-sensitive Plasmodium falciparum D10. Type of assay: functional, organism-based.

Here are results for 22 compounds from ChEMBL document CHEMBL1770072, “Antiplasmodial and antitumor activity of dihydroartemisinin analogs derived via the aza-Michael addition reaction” (Bioorg Med Chem Lett, 2011).

Consider `C=CC(=O)O[C@@H]1O[C@@H]2O[C@@]3(C)CC[C@H]4[C@H](C)CC[C@@H]([C@H]1C)[C@@]24OO3`, for which the “Ratio IC50” value in assay [1] turned out to be 1.6; in assay [5], 4. The 50% inhibitory concentration (IC50) in assay [2] worked out at 6.37 µM; in assay [3], 11.5 µM; in assay [4], 39.6 µM; in assay [6] it was 0.00927 µM; in assay [7], 0.00585 µM.

As to `C=CC(=O)O[C@H]1O[C@@H]2O[C@@]3(C)CC[C@H]4[C@H](C)CC[C@@H]([C@H]1C)[C@@]24OO3`, the figures for the “Ratio IC50” value in assay [1] and in assay [5] were 1.6 and 6.9, respectively. Besides, the IC50 in assay [2] came to 2.88 µM; in assay [3] it was 9.22 µM; in assay [4], 30.5 µM; in assay [6], 0.0124 µM; in assay [7], 0.00754 µM.

Take `C[C@H]1[C@@H](OC(=O)CCNCCNc2ccnc3cc(Cl)ccc23)O[C@@H]2O[C@@]3(C)CC[C@H]4[C@H](C)CC[C@@H]1[C@@]24OO3`: the “Ratio IC50” value turned out to be 1 in assay [1] and 1.8 in assay [5]. Moreover, the half-maximal inhibitory concentration (IC50) was 9.47 µM in assay [2]; 16.9 µM in assay [3]; greater than 50 µM in assay [4]; 0.0201 µM in assay [6]; 0.0206 µM in assay [7].

`C[C@H]1[C@@H](OC(=O)CCNCCCNc2ccnc3cc(Cl)ccc23)O[C@@H]2O[C@@]3(C)CC[C@H]4[C@H](C)CC[C@@H]1[C@@]24OO3`: the entries for the “Ratio IC50” value in assay [1] and in assay [5] were 1.3 and 2.4, respectively. The IC50 was 5.58 µM in assay [2]; 4.71 µM in assay [3]; 21.5 µM in assay [4]; 0.0244 µM in assay [6]; 0.0187 µM in assay [7].

With `C[C@H]1[C@@H](OC(=O)CCNCCCCNc2ccnc3cc(Cl)ccc23)O[C@@H]2O[C@@]3(C)CC[C@H]4[C@H](C)CC[C@@H]1[C@@]24OO3`, the entries for the “Ratio IC50” value in assay [1] and in assay [5] were 1.1 and 2, respectively. Besides, the IC50 in assay [2] was 10.1 µM; in assay [3] it was 8.99 µM; in assay [4], 32.4 µM; in assay [6] it was 0.0275 µM; in assay [7] it was 0.024 µM.

As to `C[C@H]1[C@@H](OC(=O)CCNCCCCCCNc2ccnc3cc(Cl)ccc23)O[C@@H]2O[C@@]3(C)CC[C@H]4[C@H](C)CC[C@@H]1[C@@]24OO3`, the entries for the “Ratio IC50” value in assay [1] and in assay [5] were 0.9 and 30.7, respectively. The half-maximal inhibitory concentration (IC50) in assay [2] came out at 0.37 µM; in assay [3], 3.4 µM; in assay [4] it was 19 µM; in assay [6], 0.0536 µM; in assay [7], 0.0556 µM.

As to `C[C@H]1[C@@H](OC(=O)CCN2CCN(c3ccnc4cc(Cl)ccc34)CC2)O[C@@H]2O[C@@]3(C)CC[C@H]4[C@H](C)CC[C@@H]1[C@@]24OO3`, the “Ratio IC50” value came out at 1 in assay [1] and 4.5 in assay [5]. The concentration for half-maximal inhibition (IC50) in assay [2] was found to be 6.58 µM; in assay [3] it was 14 µM; in assay [4] it was 44.6 µM; in assay [6] it was 0.01 µM; in assay [7] it was 0.0101 µM.

`C[C@H]1[C@H](OC(=O)CCN2CCCC2)O[C@@H]2O[C@@]3(C)CC[C@H]4[C@H](C)CC[C@@H]1[C@@]24OO3`: the “Ratio IC50” value in assay [1] was 1. In addition, the concentration for half-maximal inhibition (IC50) in assay [6] was found to be 0.0114 µM; in assay [7], 0.0113 µM.

For the compound `C[C@H]1[C@H](OC(=O)CCN2CCOCC2)O[C@@H]2O[C@@]3(C)CC[C@H]4[C@H](C)CC[C@@H]1[C@@]24OO3`, the figures for the “Ratio IC50” value in assay [1] and in assay [5] were 1.4 and 5.7, respectively. Also, the IC50 in assay [2] was 4.8 µM; in assay [3], 27.3 µM; in assay [4], greater than 50 µM; in assay [6], 0.00902 µM; in assay [7], 0.00623 µM.

For the compound `CCN(CC)CCC(=O)O[C@@H]1O[C@@H]2O[C@@]3(C)CC[C@H]4[C@H](C)CC[C@@H]([C@H]1C)[C@@]24OO3`, the “Ratio IC50” value in assay [1] is given as 1; in assay [5], 5. The IC50 in assay [2] is 6.02 µM; in assay [3] it was 30.4 µM; in assay [4], greater than 50 µM; in assay [6] it was 0.0136 µM; in assay [7] it was 0.013 µM.

For the compound `C[C@H]1[C@H](OC(=O)CCN(C)Cc2ccccc2)O[C@@H]2O[C@@]3(C)CC[C@H]4[C@H](C)CC[C@@H]1[C@@]24OO3`, the “Ratio IC50” value in assay [1] was 1.2; in assay [5], 5.6. Moreover, the IC50 in assay [2] is 4.48 µM; in assay [3], 25 µM; in assay [4] it was greater than 50 µM; in assay [6], 0.00616 µM; in assay [7], 0.0053 µM.

Turning to `CC(C)NCCC(=O)O[C@@H]1O[C@@H]2O[C@@]3(C)CC[C@H]4[C@H](C)CC[C@@H]([C@H]1C)[C@@]24OO3`, the “Ratio IC50” value in assay [1] amounted to 1.1. The 50% inhibitory concentration (IC50) in assay [2] was 13 µM; in assay [6], 0.0187 µM; in assay [7], 0.0169 µM.

As for `C[C@H]1[C@H](OC(=O)CCN2CCNCC2)O[C@@H]2O[C@@]3(C)CC[C@H]4[C@H](C)CC[C@@H]1[C@@]24OO3`, the “Ratio IC50” value is 1.7 in assay [1] and 3.5 in assay [5]. The IC50 in assay [2] was 8.91 µM; in assay [3], 31 µM; in assay [4] it was greater than 50 µM; in assay [6], 0.016 µM; in assay [7], 0.00922 µM.

In the case of `C[C@H]1[C@H](OC(=O)CCN2CCN(C)CC2)O[C@@H]2O[C@@]3(C)CC[C@H]4[C@H](C)CC[C@@H]1[C@@]24OO3`, the “Ratio IC50” value in assay [1] is recorded as 1.8; in assay [5], 4.1. Besides, the half-maximal inhibitory concentration (IC50) is 6.55 µM in assay [2]; 27.2 µM in assay [3]; greater than 50 µM in assay [4]; 0.0126 µM in assay [6]; 0.00716 µM in assay [7].

In the case of `C[C@H]1[C@H](OC(=O)CCN2CCN(c3ccccc3)CC2)O[C@@H]2O[C@@]3(C)CC[C@H]4[C@H](C)CC[C@@H]1[C@@]24OO3`, the “Ratio IC50” value is recorded as 1.3 in assay [1] and 4.8 in assay [5]. The IC50 in assay [2] was 5.76 µM; in assay [3], 27.6 µM; in assay [4], greater than 50 µM; in assay [6], 0.0073 µM; in assay [7] it was 0.00559 µM.

As for `NCCCNc1ccnc2cc(Cl)ccc12`, the “Ratio IC50” value in assay [1] is on record as 5.2. Also, the IC50 turned out to be 9.83 µM in assay [2], 1.25 µM in assay [6] and 0.24 µM in assay [7].

On to `NCCCCNc1ccnc2cc(Cl)ccc12`, for which, in assay [1], the “Ratio IC50” value was found to be 4.7. The results for the concentration for half-maximal inhibition (IC50) in assay [2], in assay [6] and in assay [7] were 11.2 µM, 2.27 µM and 0.483 µM, respectively.

Take `NCCCCCCNc1ccnc2cc(Cl)ccc12`: the “Ratio IC50” value in assay [1] was determined as 0.9. Further, the figures for the half-inhibitory concentration (IC50) in assay [2], in assay [6] and in assay [7] were 15.7 µM, 1.86 µM and 2.16 µM, respectively.

In the case of `Clc1ccc2c(N3CCNCC3)ccnc2c1`, in assay [1], the “Ratio IC50” value amounted to 1.1. Moreover, the concentration for half-maximal inhibition (IC50) in assay [2] is 27.6 µM; in assay [6], 1.64 µM; in assay [7], 1.46 µM.

For the compound `NCCNc1ccnc2cc(Cl)ccc12`, in assay [1], the “Ratio IC50” value amounted to 4.9. The values for the IC50 in assay [2], in assay [6] and in assay [7] were 7.22 µM, 1.14 µM and 0.231 µM, respectively.

On to `C[C@@H]1CC[C@H]2[C@@H](C)C(=O)O[C@@H]3O[C@@]4(C)CC[C@@H]1[C@]32OO4` [ARTEMISININ], for which the “Ratio IC50” value in assay [1] worked out at 1.

On to `C[C@H]1[C@@H](O)O[C@@H]2O[C@@]3(C)CC[C@H]4[C@H](C)CC[C@@H]1[C@@]24OO3` [ARTENIMOL], for which the “Ratio IC50” value in assay [1] is 0.75. In addition, the 50% inhibitory concentration (IC50) in assay [6] was 0.003 µM; in assay [7], 0.0041 µM.
